{"source": "patent US20240417410A1", "about": "“TRICYCLIC COMPOUNDS FOR THE TREATMENT OF CANCER” (Hoffmann-La Roche Inc., priority 2023, published 2024)", "test_in_all_cases": "Cell proliferation, CTG 3D, 7 d", "assay_type_in_all_cases": "cell-based", "key": {"RPMI8226": {"system": "RPMI8226", "details": "Homo sapiens, RPMI-8226", "protocol": "(§1) On Day-1, cells were plated in 384-well round-bottom ultra-low adhesion plates (cat. Corning 3830, with cell density adjusted according to Table 3. The assay plate was then centrifuged at 1000 rpm for 1 minute to ensure even distribution of cells. The plate was incubated at 37° C. in a 5% CO2 atmosphere (It is worth noting that for SW1271 cell plate, it needs to be incubated in an incubator without additional CO2).\n(§2) On Day 0, Example 24 or A122 was added to each well using a Tecan HP D300E dispenser, with a 3-fold dilution across 9 doses. The final concentration of DMSO was normalized to 0.2%. The assay plate was then centrifuged at 1000 rpm for 1 minute and incubated for 7 days.\n(§3) On Day 7, CellTiter-Glo (CTG) 3D reagent (Promega G9683) was dispensed into each well of a 384-well plate using a multi-drop dispenser (Thermo Scientific 66413). A liquid handling automation workstation (Bravo with a 384-well head) was used to mix the CTG reagents. Plates were left on a shaker for 30 minutes at 450 rpm, shielded from light.\n(§4) For data analysis, the XL-fit software (Supplier: ID Business Solutions Ltd., Software version: XL fit 5.0) was utilized. The percentage of inhibition was calculated using the formula: Inhibition %=(Max-Sample value)/(Max-Min)×100. Curve fitting was performed as follows: For complete dose-response curves, the relative IC50 was reported from the fit. For incomplete curves, if minimal inhibition was greater than 50%, an IC50 less than the lowest compound concentration was reported. If minimal inhibition was between 20% and 50%, the bottom was locked at 0% and the IC50 was reported. If maximal inhibition was less than 50%, an IC50 greater than the highest compound concentration was reported."}, "SW 480": {"system": "SW 480", "details": "Homo sapiens, SW480; SW 480, KRAS (G12V)", "protocol": "as §1, §2, §3, §4"}, "GA-10": {"system": "GA-10", "details": "Homo sapiens; GA-10, NRAS (p.G12V)", "protocol": "as §1, §2, §3, §4"}, "SK-LU-1": {"system": "SK-LU-1", "details": "Homo sapiens; SK-LU-1, KRAS (G12D)", "protocol": "as §1, §2, §3, §4"}, "Calu-6": {"system": "Calu-6", "details": "Homo sapiens", "protocol": "as §1, §2, §3, §4"}, "NCI-H2087": {"system": "NCI-H2087", "details": "Homo sapiens", "protocol": "as §1, §2, §3, §4"}, "H9": {"system": "H9", "details": "Homo sapiens", "protocol": "as §1, §2, §3, §4"}, "NCI-H727": {"system": "NCI-H727", "details": "Homo sapiens; NCI-H727, KRAS (G12V)", "protocol": "as §1, §2, §3, §4"}, "HepG2": {"system": "HepG2", "details": "Homo sapiens", "protocol": "as §1, §2, §3, §4"}, "SW1271": {"system": "SW1271", "details": "Homo sapiens", "protocol": "as §1, §2, §3, §4"}, "Toledo": {"system": "Toledo", "details": "Homo sapiens", "protocol": "as §1, §2, §3, §4"}, "OCI-AML-3": {"system": "OCI-AML-3", "details": "Homo sapiens", "protocol": "as §1, §2, §3, §4"}, "HCT-15": {"system": "HCT-15", "details": "Homo sapiens", "protocol": "as §1, §2, §3, §4"}, "KMS26": {"system": "KMS26", "details": "Homo sapiens, KMS-26; KMS26, KRAS (WT ampl)", "protocol": "as §1, §2, §3, §4"}, "Mino": {"system": "Mino", "details": "Homo sapiens", "protocol": "as §1, §2, §3, §4"}, "PANC-1": {"system": "PANC-1", "details": "Homo sapiens; PANC-1, KRAS (G12D)", "protocol": "as §1, §2, §3, §4"}, "LS1034": {"system": "LS1034", "details": "Homo sapiens, LS-1034", "protocol": "as §1, §2, §3, §4"}, "SW 948": {"system": "SW 948", "details": "Homo sapiens, SW948", "protocol": "as §1, §2, §3, §4"}, "T84": {"system": "T84", "details": "Homo sapiens", "protocol": "as §1, §2, §3, §4"}, "RCM-1": {"system": "RCM-1", "details": "Homo sapiens; RCM-1, KRAS (G12V)", "protocol": "as §1, §2, §3, §4"}, "PK-59": {"system": "PK-59", "details": "Homo sapiens; PK-59, KRAS (G12D)", "protocol": "as §1, §2, §3, §4"}, "KNS-62": {"system": "KNS-62", "details": "Homo sapiens", "protocol": "as §1, §2, §3, §4"}, "HCT-116": {"system": "HCT-116", "details": "Homo sapiens", "protocol": "as §1, §2, §3, §4"}, "SK-N-AS": {"system": "SK-N-AS", "details": "Homo sapiens", "protocol": "as §1, §2, §3, §4"}, "HT-1197": {"system": "HT-1197", "details": "Homo sapiens, HT1197", "protocol": "as §1, §2, §3, §4"}, "SNU-387": {"system": "SNU-387", "details": "Homo sapiens", "protocol": "as §1, §2, §3, §4"}, "SNU-668": {"system": "SNU-668", "details": "Homo sapiens, SNU668", "protocol": "as §1, §2, §3, §4"}}, "note": "Where two headings read alike, the source gives them in different places."}
{"smiles": "CO[C@@H](C)c1ncc(N2CCN(C)CC2)cc1-c1c2c3cc(cc4c3n1CCC4)-c1csc(n1)C[C@H](NC(=O)[C@H]1[C@H](C)[C@@H]1C)C(=O)N1CCC[C@H](N1)C(=O)OCC(C)(C)C2", "note": "(atropisomer, axis not shown; (M)) [Example 24, (1r,2R,3S)-N-[(7S,13S)-(20M)-20-[2-[(1S)-1-methoxyethyl]-5-(4-methylpiperazin-1-yl)-3-pyridyl]-17,17-dimethyl-8,14-dioxo-15-oxa-4-thia-9,21,30,31-tetrazahexacyclo[23.3.1.1^2,5.1^9,13.0^19,27.0^21,26]hentriaconta-1 (28),2,5 (31), 19,25 (29),26-hexaen-7-yl]-2,3-dimethyl-cyclopropanecarboxamide]", "values": [{"measurement": "IC50", "setting": "RPMI8226; RPMI8226, KRAS (G12A), read-out: IC50", "result": 0.38, "unit": "nM"}, {"measurement": "IC50", "setting": "SW 480", "result": 1.2, "unit": "nM"}, {"measurement": "IC50", "setting": "GA-10", "result": 1000, "unit": "nM"}, {"measurement": "IC50", "setting": "SK-LU-1", "result": 0.5, "unit": "nM"}, {"measurement": "IC50", "setting": "Calu-6; Calu-6, KRAS (Q61K), read-out: IC50", "result": 0.65, "unit": "nM"}, {"measurement": "IC50", "setting": "NCI-H2087; NCI-H2087, NRAS (p.Q61K), read-out: IC50", "result": 0.21, "unit": "nM"}, {"measurement": "IC50", "setting": "H9; H9, NRAS (p.Q61K), read-out: IC50", "result": 0.72, "unit": "nM"}, {"measurement": "IC50", "setting": "NCI-H727", "result": 0.14, "unit": "nM"}, {"measurement": "IC50", "setting": "HepG2; HepG2, NRAS (p.Q61L), read-out: IC50", "result": 2.1, "unit": "nM"}, {"measurement": "IC50", "setting": "SW1271; SW1271, NRAS (p.Q61R), read-out: IC50", "result": 1.7, "unit": "nM"}, {"measurement": "IC50", "setting": "Toledo; KRAS (G13D), read-out: IC50", "result": 100, "unit": "nM"}, {"measurement": "IC50", "setting": "OCI-AML-3; OCI-AML-3, NRAS (p.Q61L), read-out: IC50", "result": 3.3, "unit": "nM"}, {"measurement": "IC50", "setting": "HCT-15; HCT-15, KRAS (G13D), read-out: IC50", "result": 100, "unit": "nM"}, {"measurement": "IC50", "setting": "KMS26", "result": 50, "unit": "nM"}, {"measurement": "IC50", "setting": "Mino; Mino, NRAS (p.G13D), read-out: IC50", "result": 3.8, "unit": "nM"}, {"measurement": "IC50", "setting": "PANC-1", "result": 0.95, "unit": "nM"}, {"measurement": "IC50", "setting": "LS1034; LS1034, KRAS (A146T), read-out: IC50", "result": 12, "unit": "nM"}, {"measurement": "IC50", "setting": "SW 948; SW 948, KRAS (Q61L), read-out: IC50", "result": 2.9, "unit": "nM"}, {"measurement": "IC50", "setting": "T84; T84, KRAS (G13D), read-out: IC50", "result": 100, "unit": "nM"}, {"measurement": "IC50", "setting": "RCM-1", "result": 2.2, "unit": "nM"}, {"measurement": "IC50", "setting": "PK-59", "result": 0.44, "unit": "nM"}, {"measurement": "IC50", "setting": "KNS-62; KNS-62, HRAS (p.Q61L), read-out: IC50", "result": 2.6, "unit": "nM"}, {"measurement": "IC50", "setting": "HCT-116; HCT-116, KRAS (G13D), read-out: IC50", "result": 1.9, "unit": "nM"}, {"measurement": "IC50", "setting": "SK-N-AS; NRAS (p.Q61K), read-out: IC50", "result": 0.47, "unit": "nM"}, {"measurement": "IC50", "setting": "HT-1197; HT-1197, NRAS (p.Q61R), read-out: IC50", "result": 1.4, "unit": "nM"}, {"measurement": "IC50", "setting": "SNU-387; SNU-387, NRAS (p.Q61K), read-out: IC50", "result": 0.43, "unit": "nM"}, {"measurement": "IC50", "setting": "SNU-668; SNU-668, KRAS (Q61K), read-out: IC50", "result": 2, "unit": "nM"}]}
{"smiles": "CCn1c(-c2cc(N3CCN(C)CC3)cnc2[C@H](C)OC)c2c3cc(ccc31)-c1csc(n1)C[C@H](NC(=O)[C@H]1C[C@@H]1C)C(=O)N1CCC[C@H](N1)C(=O)OCC(C)(C)O2", "note": "[Example A122, reference compound]", "values": [{"measurement": "IC50", "setting": "RPMI8226", "result": 0.52, "unit": "nM"}, {"measurement": "IC50", "setting": "SW 480", "result": 2, "unit": "nM"}, {"measurement": "IC50", "setting": "GA-10", "result": 1000, "unit": "nM"}, {"measurement": "IC50", "setting": "SK-LU-1", "result": 0.56, "unit": "nM"}, {"measurement": "IC50", "setting": "Calu-6; Calu-6", "result": 1.3, "unit": "nM"}, {"measurement": "IC50", "setting": "NCI-H2087; NCI-H2087", "result": 0.44, "unit": "nM"}, {"measurement": "IC50", "setting": "H9; H9", "result": 1.6, "unit": "nM"}, {"measurement": "IC50", "setting": "NCI-H727", "result": 0.16, "unit": "nM"}, {"measurement": "IC50", "setting": "HepG2; HepG2", "result": 5.5, "unit": "nM"}, {"measurement": "IC50", "setting": "SW1271; SW1271", "result": 3, "unit": "nM"}, {"measurement": "IC50", "setting": "Toledo", "result": 100, "unit": "nM"}, {"measurement": "IC50", "setting": "OCI-AML-3; OCI-AML-3", "result": 8.9, "unit": "nM"}, {"measurement": "IC50", "setting": "HCT-15; HCT-15", "result": 100, "unit": "nM"}, {"measurement": "IC50", "setting": "KMS26", "result": 48, "unit": "nM"}, {"measurement": "IC50", "setting": "Mino; MINO", "result": 1000, "unit": "nM"}, {"measurement": "IC50", "setting": "PANC-1", "result": 0.68, "unit": "nM"}, {"measurement": "IC50", "setting": "LS1034", "result": 7.3, "unit": "nM"}, {"measurement": "IC50", "setting": "SW 948", "result": 8.5, "unit": "nM"}, {"measurement": "IC50", "setting": "T84; T84", "result": 100, "unit": "nM"}, {"measurement": "IC50", "setting": "RCM-1", "result": 6.5, "unit": "nM"}, {"measurement": "IC50", "setting": "PK-59", "result": 0.62, "unit": "nM"}, {"measurement": "IC50", "setting": "KNS-62; KNS-62", "result": 6.4, "unit": "nM"}, {"measurement": "IC50", "setting": "HCT-116; HCT-116", "result": 1.9, "unit": "nM"}, {"measurement": "IC50", "setting": "SK-N-AS", "result": 1.9, "unit": "nM"}, {"measurement": "IC50", "setting": "HT-1197", "result": 2.5, "unit": "nM"}, {"measurement": "IC50", "setting": "SNU-387; SNU-387", "result": 1.1, "unit": "nM"}, {"measurement": "IC50", "setting": "SNU-668", "result": 4.3, "unit": "nM"}]}
